From the supplement of paper PMC10307832

Columns and labels:
Experiment in all cases: relative viability (nuclei count vs DMSO), 5 days (fraction); higher = more cells survive
Vandetanib + Palbociclib = compound: COc1cc2/c(=N/c3ccc(Br)cc3F)nc[nH]c2cc1OCC1CCN(C)CC1 [Vandetanib] + CC(=O)c1c(C)c2cnc(Nc3ccc(N4CCNCC4)cn3)nc2n(C2CCCC2)c1=O [Palbociclib] (partner 0.5 µM)
Method in brief: (§1)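 The day after seeding in 1536-well plates, lung cancer cell lines were treated by pin tool with a single drug, or with a fixed anchor-drug dose together with five library-drug doses (not always all listed) in √10 steps. After 5 days, a combined fix-and-stain solution (final 0.05% Triton X-100, 1% formaldehyde, 1 ug/ml Hoechst) was added. Nuclei counted on 4× images gave relative viability as treated counts over vehicle counts, reported as the median of duplicate plates.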

CUDC-101 + Olaparib = compound: C#Cc1cccc(Nc2ncnc3cc(OC)c(OCCCCCCC(=O)NO)cc23)c1 [CUDC-101] + O=C(c1cc(Cc2n[nH]c(=O)c3ccccc23)ccc1F)N1CCN(C(=O)C2CC2)CC1 [Olaparib] (partner 8 µM)
Method in brief: as §1

NVP-TAE684 + Palbociclib = compound: COc1cc(N2CCC(N3CCN(C)CC3)CC2)ccc1Nc1ncc(Cl)c(Nc2ccccc2S(=O)(=O)C(C)C)n1 [NVP-TAE684] + CC(=O)c1c(C)c2cnc(Nc3ccc(N4CCNCC4)cn3)nc2n(C2CCCC2)c1=O [Palbociclib] (partner 0.5 µM)
Method in brief: as §1

Vandetanib + Olaparib = compound: COc1cc2/c(=N/c3ccc(Br)cc3F)nc[nH]c2cc1OCC1CCN(C)CC1 [Vandetanib] + O=C(c1cc(Cc2n[nH]c(=O)c3ccccc23)ccc1F)N1CCN(C(=O)C2CC2)CC1 [Olaparib] (partner 8 µM)
Method in brief: as §1

Cell Line: UMC-11
- relative viability (Vandetanib + Palbociclib; first compound 0.02 µM): 0.345
- relative viability (Vandetanib + Palbociclib; first compound 0.06325 µM): 0.336
- relative viability (Vandetanib + Palbociclib; first compound 0.2 µM): 0.321
- relative viability (Vandetanib + Palbociclib; first compound 0.6325 µM): 0.348
- relative viability (Vandetanib + Palbociclib; first compound 2 µM): 0.345
- relative viability (CUDC-101 + Olaparib; first compound 0.01 µM): 0.29
- relative viability (CUDC-101 + Olaparib; first compound 0.03162 µM): 0.707
- relative viability (CUDC-101 + Olaparib; first compound 0.1 µM): 0.377
- relative viability (CUDC-101 + Olaparib; first compound 0.3162 µM): 0.237
- relative viability (CUDC-101 + Olaparib; first compound 1 µM): 0.119
- relative viability (NVP-TAE684 + Palbociclib; first compound 0.2 µM): 0.344
- relative viability (NVP-TAE684 + Palbociclib; first compound 0.6325 µM): 0.326
- relative viability (NVP-TAE684 + Palbociclib; first compound 2 µM): 0.26
- relative viability (Vandetanib + Olaparib; first compound 0.02 µM): 0.707
- relative viability (Vandetanib + Olaparib; first compound 0.06325 µM): 0.35
- relative viability (Vandetanib + Olaparib; first compound 0.2 µM): 0.473
- relative viability (Vandetanib + Olaparib; first compound 0.6325 µM): 0.315
- relative viability (Vandetanib + Olaparib; first compound 2 µM): 0.475
